From patent US20150025034A1, “COMPOSITION FOR CARE AND HYGIENE OF THE AUDITORY CANAL” (LABORATOIRES GILBERT, priority 2012, published 2015) come the findings set out here.

The assay in a line: In vitro assessment of the cerumenolytic effect on plugs of human cerumen. The conditions noted are these: 1 ml per 30 mg plug, 1 hour incubation, 37° C. How it is done: The activity was assessed through the loss of weight of the plugs of cerumen caused by the dissolution of part of this plug, or more precisely the loss was calculated between the initial dry weight and the remaining dry weight after action of the product in the test.
Reference product: an aerosol spray based on pure sea water (nitrogen propellant), hereinafter referred to as T1, an aerosol spray containing sodium bicarbonate and polysorbate as active principles, hereinafter referred to as T2, and ultrapure water (type 1, Milli-Q water) are used as references. T1 and T2 are commercially available compositions used by way of compositions for the care and hygiene of the auditory channel and judged effective.
12 plugs of human cerumen, to a total weight of 1.55 grams, came from patients from the Ear, Nose and Throat Department of the Saint-Grégoire Hospital (35760). The plugs were mixed in order to obtain a homogeneous plug. […]
The effect sought is the dissolution of the plug. This dissolution is assessed by the loss of weight of the plug between the initial dry weight and the dry weight after incubation. […]
1 ml of composition CE1 and the reference compositions were added separately in previously weighed tubes and put in an oven at 90° C. for 48 hours in order to determine the quantity of dry residues of each composition. […]

As for `O` [pure water, water], the “Dissolution of human cerumen (loss of dry weight of the plug)” value is 51.5%.
